This note sets out measurements from patent US20250179047A1, “5-[7-(3,4-DIHYDRO-1H-ISOQUINOLINE-2-CARBONYL)-1,2,3,4 TETRAHYDROISOQUINOLIN-6-YL]-1H-PYRROLE-3-CARBOXAMIDE DERIVATIVES, PHARMACEUTICAL COMPOSITIONS CONTAINING THEM AND THEIR USES AS PRO-APOPTOTIC AGENTS” (LES LABORATOIRES SERVIER, priority 2022, published 2025).

Each structure is given as a SMILES string.

Assay [1] deals with BCL2 G101V. Nature of the assay: TR-FRET competitive binding assay, BCL2 G101V. On the set-up: species or system human. The note with it: ratio Ki BCL2 G101V / Ki BCL2 WT. In short, it runs like this: (§1)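 Competitive TR-FRET displacement of fluorescein-PUMA peptide (2 or 20 nM) from 0.5 nM terbium-labelled N-terminal Halo-fusion BCL2 (1-207, wild type or mutant) or BCLXL (2-196), expressed in E. coli. Buffer 50 mM Hepes pH 7.5, 150 mM NaCl, 5% DMSO; 2 h at 23°C. 520/495 nm ratio fitted over 11 points for IC50, converted to Ki.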
A general note: TR-FRET usually uses a lanthanide donor and a delayed reading to cut background.

Assay [2] concerns the target BCL2 G101V (Homo sapiens, UniProt P10415, G101V). Put plainly: TR-FRET competitive binding assay, BCL2 G101V. The note with it: BCL2 G101V; Ki determined from IC50; read-out: TR_FRET EKI_Bcl2 G101V. The method, boiled down:
as §1

The target of assay [3] is BCLXL WT (Homo sapiens (Human), UniProt Q07817). Put plainly: TR-FRET competitive binding assay, BCLXL WT. To be noted: for Ki: BCLXL WT, Ki determined from IC50, read-out: TR_FRET EKI BclxL; for TR_FRET EKI BCLxL/WT selectivty ratio: ratio Ki BCLxL / Ki BCL2 WT. In short, it runs like this:
as §1

Assay [4] relates to KMS-12-PE Bcl-2 WT. Nature of the assay: In vitro cytotoxicity CellTiter-Glo 48 h, KMS-12-PE Bcl-2 WT. The note with it: C50 = concentration needed to reach 50% of the cellular viability. It counts as cell-based. In short, it runs like this:
(§2)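 KMS-12-PE myeloma cells were lentivirally transduced with wild-type or G101V-mutant Bcl-2 and sorted by TagRFP. They were exposed to compounds as 11-point dose responses for 48 h at 37 °C, 5% CO2. Viability was read by CellTiter-Glo ATP luminescence, and C50 was the concentration giving 50% viability.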

Assay [5] addresses BCL2 D103Y (Homo sapiens, UniProt P10415, D103Y). Nature of the assay: TR-FRET competitive binding assay, BCL2 D103Y. The note with it: Ki determined from IC50, read-out: TR_FRET EKI_Bcl2 D103Y. The method, boiled down:
as §1

The target of assay [6] is BCL2 WT (Homo sapiens (Human), UniProt P10415). Nature of the assay: TR-FRET competitive binding assay, BCL2 WT. To be noted: Ki determined from IC50, read-out: TR_FRET EKI_Bcl2 WT. In short, it runs like this:
as §1

The subject of assay [7] is KMS-12-PE Bcl-2 G101V. Nature of the assay: In vitro cytotoxicity CellTiter-Glo 48 h, KMS-12-PE Bcl-2 G101V. It counts as cell-based. To be noted: for Ratio (G101V/WT): C50 KMS-12-PE Bcl-2 G101V over C50 KMS-12-PE Bcl-2 WT; for IC50: 48 h, CellTiter-Glo, C50 = concentration needed to reach 50% of the cellular viability. In short, it runs like this:
as §2
A general note: Cellular ATP, detected with luciferase, serves as a proxy for viable cell number.

Chain of BCLXL WT (Q07817 other isoform, or with tags, fused parts or gaps): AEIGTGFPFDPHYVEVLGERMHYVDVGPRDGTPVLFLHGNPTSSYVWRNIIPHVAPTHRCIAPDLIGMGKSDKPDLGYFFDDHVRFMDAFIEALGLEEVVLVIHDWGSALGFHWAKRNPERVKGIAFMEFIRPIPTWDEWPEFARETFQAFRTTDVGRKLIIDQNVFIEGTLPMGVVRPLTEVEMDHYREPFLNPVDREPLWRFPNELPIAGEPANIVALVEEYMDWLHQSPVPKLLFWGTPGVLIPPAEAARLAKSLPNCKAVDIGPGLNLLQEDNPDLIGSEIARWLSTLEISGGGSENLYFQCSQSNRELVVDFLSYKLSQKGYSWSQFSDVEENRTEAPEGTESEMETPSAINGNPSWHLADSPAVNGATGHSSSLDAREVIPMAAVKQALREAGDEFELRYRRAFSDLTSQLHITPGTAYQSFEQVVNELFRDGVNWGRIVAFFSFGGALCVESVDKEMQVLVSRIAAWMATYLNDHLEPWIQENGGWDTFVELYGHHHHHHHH

The IC50 is the point on the concentration scale where inhibition reaches its midpoint. Low readings indicate higher potency, high ones lower potency. On to `Cc1c(N(C(=O)c2cc(-c3cc4c(cc3C(=O)N3Cc5ccccc5C[C@H]3CN3CCC[C@H](C)C3)CN(C(=O)Cc3ccc(OCCN(C)C5CC5)cc3)CC4)n(C)c2C)c2ccc(O)cc2)cc(C#N)n1C` [Example 139, N-(5-cyano-1,2-dimethyl-pyrrol-3-yl)-5-[2-[2-[4-[2-[cyclopropyl(methyl)amino]ethoxy]phenyl]acetyl]-7-[(3S)-3-[[(3S)-3-methyl-1-piperidyl]methyl]-3,4-dihydro-1H-isoquinoline-2-carbonyl]-3,4-dihydro-1H-isoquinolin-6-yl]-N-(4-hydroxyphenyl)-1,2-dimethyl-pyrrole-3-carboxamide], for which, in assay [1], the “TR_FRET EKI G101V/WT selectivty ratio” value was 8.3. Besides, the Ki in assay [2] is 1 nM; in assay [3], 5.7 nM; in assay [5], 0.51 nM; in assay [6], 0.12 nM. Further, in assay [3], the “TR_FRET EKI BCLxL/WT selectivty ratio” value amounted to 47.5. Further, the IC50 was found to be 0.021 µM in assay [4] (Homo sapiens, KMS-12-PE) and 0.115 µM in assay [7] (Homo sapiens, KMS-12-PE). Besides, the “Ratio (G101V/WT)” value in assay [7] amounted to 5.4762.
Regarding `COc1ccc(N(C(=O)c2cc(-c3cc4c(cc3C(=O)N3Cc5ccccc5C[C@H]3CN3CCCCC3)CN(C(=O)Cc3ccc(OCCN5CCOCC5)cc3F)CC4)n(C)c2C)c2ccc(O)cc2)cn1` [Example 165, 5-[2-(2-{2-fluoro-4-[2-(morpholin-4-yl)ethoxy]phenyl}acetyl)-7-{[(3S)-3-(piperidin-1-ylmethyl)-3,4-dihydro-1H-isoquinolin-2-yl]carbonyl}-3,4-dihydro-1H-isoquinolin-6-yl]-N-(4-hydroxyphenyl)-N-(6-methoxypyridin-3-yl)-1,2-dimethylpyrrole-3-carboxamide], in assay [1], the “TR_FRET EKI G101V/WT selectivty ratio” value stood at 21.1. In addition, the Ki in assay [2] worked out at 0.8 nM; in assay [3], 10 nM; in assay [5] it was 0.13 nM; in assay [6] it was 0.04 nM. The “TR_FRET EKI BCLxL/WT selectivty ratio” value in assay [3] was 277.8. For the same molecule, the half-inhibitory concentration (IC50) came to 0.0092 µM in assay [4] (Homo sapiens, KMS-12-PE) and 0.0828 µM in assay [7] (Homo sapiens, KMS-12-PE). The “Ratio (G101V/WT)” value in assay [7] turned out to be 9.0393.
As for `Cc1c(C(=O)N(c2ccc(O)cc2)c2cnn(CC(C)C)c2)cc(-c2cc3c(cc2C(=O)N2Cc4ccccc4C[C@H]2C)CN(C(=O)Cc2ccc(OCCN4CCOCC4)cc2)CC3)n1C` [Example 144, N-(4-hydroxyphenyl)-1,2-dimethyl-5-(7-{[(3R)-3-methyl-3,4-dihydro-1H-isoquinolin-2-yl]carbonyl}-2-(2-{4-[2-(morpholin-4-yl)ethoxy]phenyl}acetyl)-3,4-dihydro-1H-isoquinolin-6-yl)-N-[1-(2-methylpropyl)pyrazol-4-yl]pyrrole-3-carboxamide], the “TR_FRET EKI G101V/WT selectivty ratio” value in assay [1] amounted to 11.0. Further, the Ki was determined as 1.1 nM in assay [2], 7.7 nM in assay [3], 0.18 nM in assay [5] and 0.1 nM in assay [6]. Moreover, the “TR_FRET EKI BCLxL/WT selectivty ratio” value in assay [3] was 77.0. In addition, the IC50 in assay [4] (Homo sapiens, KMS-12-PE) is 0.0245 µM; in assay [7] (Homo sapiens, KMS-12-PE), 0.307 µM. Also, the “Ratio (G101V/WT)” value in assay [7] came out at 12.531.
`Cc1c(N(C(=O)c2cc(-c3cc4c(cc3C(=O)N3Cc5ccccc5C[C@H]3C)CN(C(=O)Cc3cc(F)c(OCCN5CCOCC5)cc3F)CC4)n(C)c2C)c2ccc(O)cc2)cc(C#N)n1C` [Example 69, N-(5-cyano-1,2-dimethylpyrrol-3-yl)-5-[2-(2-{2,5-difluoro-4-[2-(morpholin-4-yl)ethoxy]phenyl}acetyl)-7-{[(3R)-3-methyl-3,4-dihydro-1H-isoquinolin-2-yl]carbonyl}-3,4-dihydro-1H-isoquinolin-6-yl]-N-(4-hydroxyphenyl)-1,2-dimethylpyrrole-3-carboxamide]: the “TR_FRET EKI G101V/WT selectivty ratio” value in assay [1] is listed as 7.9. Moreover, the Ki was determined as 2 nM in assay [2], 4.3 nM in assay [3], 0.5 nM in assay [5] and 0.25 nM in assay [6]. For the same molecule, in assay [3], the “TR_FRET EKI BCLxL/WT selectivty ratio” value is reported as 17.2. Also, the IC50 in assay [4] (Homo sapiens, KMS-12-PE) was 0.0047 µM; in assay [7] (Homo sapiens, KMS-12-PE), 0.043 µM. The “Ratio (G101V/WT)” value in assay [7] is recorded as 9.23.
In the case of `Cc1c(N(C(=O)c2cc(-c3cc4c(cc3C(=O)N3Cc5ccccc5C[C@H]3CN3CCCCC3)CN(C(=O)Cc3ccc(OCCN(C)C5COC5)cc3)CC4)n(C)c2C)c2ccc(O)cc2)cc(C#N)n1C` [Example 106, N-(5-cyano-1,2-dimethyl-1H-pyrrol-3-yl)-N-(4-hydroxyphenyl)-1,2-dimethyl-5-{2-[2-(4-{2-[methyl(oxetan-3-yl)amino]ethoxy}phenyl)acetyl]-7-[(3S)-3-[(piperidin-1-yl)methyl]-1,2,3,4-tetrahydroisoquinoline-2-carbonyl]-1,2,3,4-tetrahydroisoquinolin-6-yl}-1H-pyrrole-3-carboxamide], the “TR_FRET EKI G101V/WT selectivty ratio” value in assay [1] worked out at 6.2. Also, the Ki in assay [2] stood at 0.3 nM; in assay [3], 1.8 nM; in assay [5], 0.19 nM; in assay [6], 0.05 nM. Also, in assay [3], the “TR_FRET EKI BCLxL/WT selectivty ratio” value turned out to be 36.0. Besides, the IC50 was determined as 0.0107 µM in assay [4] (Homo sapiens, KMS-12-PE) and 0.0485 µM in assay [7] (Homo sapiens, KMS-12-PE). Moreover, the “Ratio (G101V/WT)” value in assay [7] came out at 4.53.
In the case of `Cc1c(N(C(=O)c2cc(-c3cc4c(cc3C(=O)N3Cc5ccccc5C[C@H]3CN3CC[C@@H](C)C3)CN(C(=O)Cc3ccc(OCCN5CCOCC5)cc3F)CC4)n(C)c2C)c2ccc(O)cc2)cc(C#N)n1C` [Example 156, N-(5-cyano-1,2-dimethylpyrrol-3-yl)-5-[2-(2-{2-fluoro-4-[2-(morpholin-4-yl)ethoxy]phenyl}acetyl)-7-{[(3S)-3-{[(3R)-3-methylpyrrolidin-1-yl]methyl}-3,4-dihydro-1H-isoquinolin-2-yl]carbonyl}-3,4-dihydro-1H-isoquinolin-6-yl]-N-(4-hydroxyphenyl)-1,2-dimethylpyrrole-3-carboxamide], the “TR_FRET EKI G101V/WT selectivty ratio” value in assay [1] came out at 4.0. For the same molecule, the Ki in assay [2] was found to be 0.2 nM; in assay [3] it was 2.7 nM; in assay [5] it was 0.1 nM; in assay [6] it was 0.05 nM. The “TR_FRET EKI BCLxL/WT selectivty ratio” value in assay [3] was 50.9. Besides, the IC50 in assay [4] (Homo sapiens, KMS-12-PE) stood at 0.0154 µM; in assay [7] (Homo sapiens, KMS-12-PE), 0.0811 µM. Also, the “Ratio (G101V/WT)” value in assay [7] is on record as 5.2662.
Turning to `Cc1c(N(C(=O)c2cc(-c3cc4c(cc3C(=O)N3Cc5ccccc5C[C@H]3CN3CCCCC3)CN(C(=O)Cc3ccc(OCC(C)N5CCOCC5)cc3)CC4)n(C)c2C)c2ccc(O)cc2)cc(C#N)n1C` (single isomer, unassigned) [Example 128, N-(5-cyano-1,2-dimethyl-1H-pyrrol-3-yl)-N-(4-hydroxyphenyl)-1,2-dimethyl-5-[2-(2-{4-[(2R or S)-2-(morpholin-4-yl)propoxy]phenyl}acetyl)-7-[(3S)-3-[(piperidin-1-yl)methyl]-1,2,3,4-tetrahydroisoquinoline-2-carbonyl]-1,2,3,4-tetrahydroisoquinolin-6-yl]-1H-pyrrole-3-carboxamide], the “TR_FRET EKI G101V/WT selectivty ratio” value in assay [1] is 6.9. Further, the Ki in assay [2] worked out at 0.4 nM; in assay [3] it was 5.4 nM; in assay [5], 0.21 nM; in assay [6] it was 0.06 nM. Further, the “TR_FRET EKI BCLxL/WT selectivty ratio” value in assay [3] is given as 93.1. For the same molecule, the IC50 in assay [4] was 0.0103 µM; in assay [7] it was 0.0613 µM. For the same molecule, in assay [7], the “Ratio (G101V/WT)” value came to 5.95.
Turning to `Cc1c(N(C(=O)c2cc(-c3cc4c(cc3C(=O)N3Cc5ccccc5C[C@H]3CN3CCC[C@H](C)C3)CN(C(=O)Cc3ccc(OCCN5CCOCC5)cc3)CC4)n(C)c2C)c2ccc(O)cc2)cc(C#N)n1C` [Example 153, N-(5-cyano-1,2-dimethyl-pyrrol-3-yl)-N-(4-hydroxyphenyl)-1,2-dimethyl-5-[7-[(3S)-3-[[(3S)-3-methyl-1-piperidyl]methyl]-3,4-dihydro-1H-isoquinoline-2-carbonyl]-2-[2-[4-(2-morpholinoethoxy)phenyl]acetyl]-3,4-dihydro-1H-isoquinolin-6-yl]pyrrole-3-carboxamide], the “TR_FRET EKI G101V/WT selectivty ratio” value in assay [1] is reported as 3.5. Moreover, the Ki in assay [2] is 0.4 nM; in assay [3], 5.2 nM; in assay [5], 0.38 nM; in assay [6] it was 0.13 nM. The “TR_FRET EKI BCLxL/WT selectivty ratio” value in assay [3] is 41.6. Besides, the IC50 in assay [4] (Homo sapiens, KMS-12-PE) was found to be 0.0095 µM; in assay [7] (Homo sapiens, KMS-12-PE), 0.051 µM. Moreover, the “Ratio (G101V/WT)” value in assay [7] is listed as 5.3741.
